Data reported in article PMC4669708 (Cell Death & Disease, 2015).

What was measured:
Test in all cases: c-ponatinib pulldown LC-MS/MS
Format in all cases: binding
JAK1 = JAK1 (Homo sapiens, UniProt P23458)
Procedure, shortened: (§1)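 Affinity matrix: 25 nmol c-ponatinib/50 μl NHS-Sepharose; 10 mg whole cell lysate input; duplicate pulldowns, each run twice by LC-MS/MS. DTT/iodoacetamide, trypsin. Human SwissProt search, protein FDR <1%. Competition with free compound; fold reduction = median spectral count ratio.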

MAPK11 = MAPK11 (Homo sapiens, UniProt Q15759)
MAPK11, sequence (Q15759 whole entry): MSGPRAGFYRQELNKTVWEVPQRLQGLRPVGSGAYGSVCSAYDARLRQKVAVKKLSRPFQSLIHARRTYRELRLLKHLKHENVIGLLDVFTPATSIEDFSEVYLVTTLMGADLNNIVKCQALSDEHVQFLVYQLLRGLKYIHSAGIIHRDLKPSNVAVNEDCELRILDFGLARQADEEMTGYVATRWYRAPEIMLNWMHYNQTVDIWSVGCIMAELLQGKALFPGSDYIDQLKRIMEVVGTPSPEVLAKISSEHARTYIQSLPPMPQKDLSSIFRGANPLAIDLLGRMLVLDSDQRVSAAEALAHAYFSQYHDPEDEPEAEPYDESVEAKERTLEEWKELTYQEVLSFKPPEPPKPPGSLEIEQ
Procedure, shortened: as §1

MAPKAPK2 = MAPKAPK2 (Homo sapiens, UniProt P49137)
MAPKAPK2, sequence (P49137 whole entry): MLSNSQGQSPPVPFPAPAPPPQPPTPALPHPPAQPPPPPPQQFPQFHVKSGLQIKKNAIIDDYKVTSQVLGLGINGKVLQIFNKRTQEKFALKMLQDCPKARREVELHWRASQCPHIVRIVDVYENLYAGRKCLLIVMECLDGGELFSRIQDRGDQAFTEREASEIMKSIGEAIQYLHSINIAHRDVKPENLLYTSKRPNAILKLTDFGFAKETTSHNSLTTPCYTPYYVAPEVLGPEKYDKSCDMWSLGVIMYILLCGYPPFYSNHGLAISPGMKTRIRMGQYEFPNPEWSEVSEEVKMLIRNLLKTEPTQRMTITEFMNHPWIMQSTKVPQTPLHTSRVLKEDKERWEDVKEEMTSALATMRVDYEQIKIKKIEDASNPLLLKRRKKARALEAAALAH
Procedure, shortened: as §1

TAB1 = target: T1, TAB1 (Homo sapiens, UniProt Q15750)
T1 sequence (Q15750 1-504): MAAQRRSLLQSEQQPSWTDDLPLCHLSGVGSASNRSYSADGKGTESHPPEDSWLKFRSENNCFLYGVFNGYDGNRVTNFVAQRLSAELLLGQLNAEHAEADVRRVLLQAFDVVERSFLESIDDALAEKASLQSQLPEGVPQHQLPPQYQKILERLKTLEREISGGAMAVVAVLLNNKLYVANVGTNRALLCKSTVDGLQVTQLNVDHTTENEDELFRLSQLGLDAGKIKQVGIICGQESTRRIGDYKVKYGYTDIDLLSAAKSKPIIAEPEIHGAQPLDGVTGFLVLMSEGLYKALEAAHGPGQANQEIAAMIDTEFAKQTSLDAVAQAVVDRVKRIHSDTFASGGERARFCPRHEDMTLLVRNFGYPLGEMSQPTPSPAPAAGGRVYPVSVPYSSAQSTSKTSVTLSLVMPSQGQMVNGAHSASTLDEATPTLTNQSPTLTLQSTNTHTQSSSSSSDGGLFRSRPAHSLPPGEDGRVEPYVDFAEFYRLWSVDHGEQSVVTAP
T1 sequence (O43318 1-606 partner): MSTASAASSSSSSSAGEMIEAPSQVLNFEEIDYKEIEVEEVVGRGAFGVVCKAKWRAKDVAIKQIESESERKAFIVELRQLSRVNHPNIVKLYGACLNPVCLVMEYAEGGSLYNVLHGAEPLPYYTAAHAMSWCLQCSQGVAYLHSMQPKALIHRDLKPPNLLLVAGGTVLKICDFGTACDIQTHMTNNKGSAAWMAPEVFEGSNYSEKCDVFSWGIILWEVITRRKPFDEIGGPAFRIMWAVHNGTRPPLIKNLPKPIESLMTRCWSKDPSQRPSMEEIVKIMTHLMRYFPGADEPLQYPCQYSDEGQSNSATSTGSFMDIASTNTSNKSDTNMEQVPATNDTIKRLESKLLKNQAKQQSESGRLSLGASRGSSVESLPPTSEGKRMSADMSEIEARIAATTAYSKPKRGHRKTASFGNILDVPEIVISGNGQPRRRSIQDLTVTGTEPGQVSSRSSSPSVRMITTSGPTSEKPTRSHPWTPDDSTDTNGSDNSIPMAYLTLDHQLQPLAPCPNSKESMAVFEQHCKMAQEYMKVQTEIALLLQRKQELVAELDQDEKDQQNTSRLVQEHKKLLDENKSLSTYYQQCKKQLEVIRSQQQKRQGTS
Procedure, shortened: as §1

JAK1, sequence (P23458 whole entry): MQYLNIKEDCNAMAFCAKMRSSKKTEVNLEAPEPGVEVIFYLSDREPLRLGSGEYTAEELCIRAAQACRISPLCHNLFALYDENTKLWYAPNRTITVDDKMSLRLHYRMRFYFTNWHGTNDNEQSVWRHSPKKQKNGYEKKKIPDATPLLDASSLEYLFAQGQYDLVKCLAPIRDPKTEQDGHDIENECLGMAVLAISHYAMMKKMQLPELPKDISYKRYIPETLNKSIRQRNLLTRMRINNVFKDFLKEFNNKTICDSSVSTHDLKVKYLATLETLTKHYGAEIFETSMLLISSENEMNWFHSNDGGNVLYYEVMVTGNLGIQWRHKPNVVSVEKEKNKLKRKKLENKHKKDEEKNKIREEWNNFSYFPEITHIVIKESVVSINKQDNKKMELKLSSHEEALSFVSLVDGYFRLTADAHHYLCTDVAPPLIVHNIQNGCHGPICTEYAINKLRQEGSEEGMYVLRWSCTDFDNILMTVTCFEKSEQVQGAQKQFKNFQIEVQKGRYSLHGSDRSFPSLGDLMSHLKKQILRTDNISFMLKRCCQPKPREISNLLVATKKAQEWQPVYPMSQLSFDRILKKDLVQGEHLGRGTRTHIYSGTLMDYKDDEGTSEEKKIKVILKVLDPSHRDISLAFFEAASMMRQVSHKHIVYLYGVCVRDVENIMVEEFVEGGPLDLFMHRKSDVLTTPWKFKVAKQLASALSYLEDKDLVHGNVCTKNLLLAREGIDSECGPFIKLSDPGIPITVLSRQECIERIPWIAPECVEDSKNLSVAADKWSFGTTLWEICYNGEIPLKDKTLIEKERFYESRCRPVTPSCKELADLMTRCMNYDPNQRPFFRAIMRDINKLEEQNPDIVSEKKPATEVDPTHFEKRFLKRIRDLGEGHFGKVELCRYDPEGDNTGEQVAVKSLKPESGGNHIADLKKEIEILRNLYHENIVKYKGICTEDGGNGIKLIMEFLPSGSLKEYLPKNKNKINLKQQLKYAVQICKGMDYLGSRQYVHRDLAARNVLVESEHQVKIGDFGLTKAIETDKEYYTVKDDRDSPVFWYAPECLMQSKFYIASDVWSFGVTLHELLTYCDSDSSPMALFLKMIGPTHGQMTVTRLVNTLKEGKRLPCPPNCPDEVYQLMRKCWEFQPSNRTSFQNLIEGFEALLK

- Av. SC comp. (JAK1; + free ponatinib): 0
- Total SC comp. (JAK1; + free ponatinib): 0
- Av. SC (JAK1; no competitor): 21.5
- Total SC (JAK1; no competitor): 86
- Av. SC comp. (MAPK11; + free ponatinib): 0
- Total SC comp. (MAPK11; + free ponatinib): 0
- Av. SC (MAPK11; no competitor): 3
- Total SC (MAPK11; no competitor): 12
- Av. SC comp. (MAPKAPK2; + free ponatinib): 0
- Total SC comp. (MAPKAPK2; + free ponatinib): 0
- Av. SC (MAPKAPK2; no competitor): 23.5
- Total SC (MAPKAPK2; no competitor): 94
- Av. SC comp. (TAB1; + free ponatinib): 6.75
- Total SC comp. (TAB1; + free ponatinib): 27
- Av. SC (TAB1; no competitor): 38.25
- Total SC (TAB1; no competitor): 153
Structure (SMILES): Cc1ccc(C(=O)Nc2ccc(CN3CCN(CCCN)CC3)c(C(F)(F)F)c2)cc1C#Cc1cnc2cccnn12 [c-ponatinib]
